Laboratory results: patent US5736510A, “Antibiotics 10381v, w, x,y, z1, z2, pre-b and t” (priority 1996, dated 1998)
“Also recorded” adds a separate entry of the source. Like-named read-outs stand apart in the source and are kept apart here.

Tests used:
Type in all cases: cell-based
S. ruminantium = conditions: for M.I.C.: Table III, mass basis, no correction for purity; for Minimal Inhibitory Concentration (bioactivity data): Table IV (separate study)
[1] = tested on: anaerobic bacteria which normally inhabit the gut of poultry, swine or cattle; assay: in vitro MIC assay, overall comparison of components across the test organisms
Description: (§1) The assay measures the ability of a compound to inhibit the growth of certain types of anaerobic bacteria which normally inhabit the gut of poultry, swine or cattle.
(§2) Two mg/ml solutions of the drugs to be tested are made in 10% v/v ethanol/water. This stock is then diluted to one mg per ml and then further diluted through a series of ten-two fold dilutions. At each concentration an aliquot is placed in a sterile petri plate. Nine volumes of molten agar are then added to each plate, mixed and allowed to harden at room temperature. These plates are then transferred to a Coy chamber and allowed to dry and equilibrate with the oxygen free atmosphere.
(§3) Organisms used for MIC testing are inoculated into broth media, and incubated 18-24 h at 39° C. prior to use. The cultures are then diluted to equal the turbidity of a 0.5 MacFarland barium sulfate standard, except for the porcine isolates P108-3C1, P105-1C3 and P105-1C4 which are diluted 1:1. All inoculations and dilutions are performed in the anaerobic chamber using broth media and syringe transfer through the butyl robber stoppers.
(§4) Freshly prepared and diluted cultures are loaded into the wells of a Steers replicator device. This apparatus can dispense ca 10 μl of each of 32 cultures onto the surface of the preincubated agar plates. One hour after the inoculation, the inoculum will have been absorbed and the plates are inverted and incubated at 38°-39° C. for 48 h. Plates are then removed from the chamber and the MIC for the test compounds determined. MIC's are reported as the lowest concentration of a compound which prevented detectable growth of a test organism on the agar plates. […] Thus, each set of test plates yields individual MIC values for each of the 32 test organisms.

B. thetaiotaomicron = conditions: strain UC9014
Description: as §1, §2, §3, §4

E. ruminantium = conditions: strain GA195
S. hyodysenteriae = tested on: S. hyodysenteriae; design: unit not given here; conditions: Table IV (separate study)
Description: as §1, §2, §3, §4

M. elsdenii = conditions: strain B159
S. faecalis = conditions: for M.I.C.: Table III, mass basis, no correction for purity; for Minimal Inhibitory Concentration (bioactivity data): Table IV (separate study)
B. fibrisolvens = conditions: for M.I.C.: Table III, mass basis, no correction for purity; for Minimal Inhibitory Concentration (bioactivity data): Table IV (separate study)
R. amylophilus = conditions: strain H18
S. bovis = conditions: strain JB1
C. perfringens = tested on: C. perfringens; design: Minimal Inhibitory Concentration (bioactivity data): unit not given here; conditions: for M.I.C.: Table III, mass basis, no correction for purity; for Minimal Inhibitory Concentration (bioactivity data): Table IV (separate study)
E. lentum = conditions: strain L-34; Table IV (separate study)
R. flavefaciens = conditions: for M.I.C.: Table III, mass basis, no correction for purity; for Minimal Inhibitory Concentration (bioactivity data): Table IV (separate study)
F. necrophorum = conditions: for M.I.C.: Table III, mass basis, no correction for purity; for Minimal Inhibitory Concentration (bioactivity data): Table IV (separate study)
L. multiparus = conditions: strain 40
P. ruminicola = conditions: strain 118B
B. fragilis = conditions: strain UC9370
[2] = Table III, mass basis, no correction for purity

C=C(NC(=O)c1ccc2c(n1)-c1coc(n1)C(=C)NC(=O)C(=C)NC(=O)c1nc(oc1C)C(=CC)NC(=O)c1csc(n1)C(OC)NC(=O)c1nc(oc1C)C(=CC(C)O)NC(=O)C(C(C)O)NC(=O)c1csc-2n1)C(N)=O (stereo not drawn) [Antibiotic 10381y, 52-de[1-[[[1-(aminocarbonyl)ethenyl]amino]carbonyl]ethenyl]-sulfomycin I]
M.I.C. (S. ruminantium; strain GA31): 25.0 µg/mL | Minimal Inhibitory Concentration (bioactivity data) (S. ruminantium; strain GA31): < 0.2 | M.I.C. (S. ruminantium; strain GA192): > 100.0 µg/mL | Minimal Inhibitory Concentration (bioactivity data) (S. ruminantium; strain GA192): < 0.2 | bioactivity relative to the 10381b antibiotic complex or the 10381b (10381b2) component ([1]; against a variety of microorganisms): increased antimicrobial activity; also recorded: about double | in vitro activity ranking of the individual components ([1]; conclusion from Tables III and IV): most active | M.I.C. (B. thetaiotaomicron; [2]): < 0.2 µg/mL | Minimal Inhibitory Concentration (bioactivity data) (B. thetaiotaomicron; Table IV (separate study)): 50.0 | M.I.C. (E. ruminantium; [2]): 6.3 µg/mL | Minimal Inhibitory Concentration (bioactivity data) (E. ruminantium; Table IV (separate study)): 0.8 | Minimal Inhibitory Concentration (bioactivity data) (S. hyodysenteriae; strain 16-4): > 100 | Minimal Inhibitory Concentration (bioactivity data) (S. hyodysenteriae; strain B204): > 100 | M.I.C. (M. elsdenii; [2]): > 100.0 µg/mL | Minimal Inhibitory Concentration (bioactivity data) (M. elsdenii; Table IV (separate study)): > 100 | M.I.C. (S. faecalis; strain 71A01): 6.3 µg/mL | Minimal Inhibitory Concentration (bioactivity data) (S. faecalis; strain 71A01): 6.3 | M.I.C. (S. faecalis; strain CCS1-03): 1.6 µg/mL | Minimal Inhibitory Concentration (bioactivity data) (S. faecalis; strain CCS1-03): 3.1 | M.I.C. (S. faecalis; strain P1051C4): 1.6 µg/mL | Minimal Inhibitory Concentration (bioactivity data) (S. faecalis; strain P1051C4): 0.8 | M.I.C. (B. fibrisolvens; strain 49): < 0.2 µg/mL | Minimal Inhibitory Concentration (bioactivity data) (B. fibrisolvens; strain 49): 0.4 | M.I.C. (B. fibrisolvens; strain D1): < 0.2 µg/mL | Minimal Inhibitory Concentration (bioactivity data) (B. fibrisolvens; strain D1): < 0.2 | M.I.C. (R. amylophilus; [2]): 100.0 µg/mL | Minimal Inhibitory Concentration (bioactivity data) (R. amylophilus; Table IV (separate study)): < 0.2 | M.I.C. (S. bovis; [2]): 0.4 µg/mL | Minimal Inhibitory Concentration (bioactivity data) (S. bovis; Table IV (separate study)): 0.8 | M.I.C. (C. perfringens; strain 71A02): < 0.2 µg/mL | Minimal Inhibitory Concentration (bioactivity data) (C. perfringens; strain 71A02): < 0.2 | M.I.C. (C. perfringens; strain A82-1): 0.8 µg/mL | Minimal Inhibitory Concentration (bioactivity data) (C. perfringens; strain A82-1): 12.5 | M.I.C. (C. perfringens; strain A83-3): < 0.2 µg/mL | Minimal Inhibitory Concentration (bioactivity data) (C. perfringens; strain A83-3): < 0.2 | M.I.C. (C. perfringens; strain A83-RKP): 0.4 µg/mL | Minimal Inhibitory Concentration (bioactivity data) (C. perfringens; strain A83-RKP): < 0.2 | M.I.C. (C. perfringens; strain CCS1-11): 0.8 µg/mL | Minimal Inhibitory Concentration (bioactivity data) (C. perfringens; strain CCS1-11): < 0.2 | M.I.C. (C. perfringens; strain CCS2-09): < 0.2 µg/mL | Minimal Inhibitory Concentration (bioactivity data) (C. perfringens; strain CCS2-09): < 0.2 | M.I.C. (C. perfringens; strain P1051C3): 12.5 µg/mL | Minimal Inhibitory Concentration (bioactivity data) (C. perfringens; strain P1051C3): 6.3 | M.I.C. (C. perfringens; strain P1083C1): < 0.2 µg/mL | Minimal Inhibitory Concentration (bioactivity data) (C. perfringens; strain P1083C1): 0.8 | M.I.C. (C. perfringens; strain RF1B04): < 0.2 µg/mL | Minimal Inhibitory Concentration (bioactivity data) (C. perfringens; strain RF1B04): < 0.2 | M.I.C. (C. perfringens; strain UC9452): < 0.2 µg/mL | Minimal Inhibitory Concentration (bioactivity data) (C. perfringens; strain UC9452): 0.8 | Minimal Inhibitory Concentration (bioactivity data) (E. lentum): < 0.2 | M.I.C. (R. flavefaciens; strain C94): 6.3 µg/mL | Minimal Inhibitory Concentration (bioactivity data) (R. flavefaciens; strain C94): 0.8 | M.I.C. (R. flavefaciens; strain FD1): < 0.2 µg/mL | Minimal Inhibitory Concentration (bioactivity data) (R. flavefaciens; strain FD1): 0.4 | M.I.C. (F. necrophorum; strain FN4070): 25.0 µg/mL | Minimal Inhibitory Concentration (bioactivity data) (F. necrophorum; strain FN4070): 50.0 | M.I.C. (F. necrophorum; strain FN5052): 25.0 µg/mL | Minimal Inhibitory Concentration (bioactivity data) (F. necrophorum; strain FN5052): 50.0 | M.I.C. (L. multiparus; [2]): < 0.2 µg/mL | Minimal Inhibitory Concentration (bioactivity data) (L. multiparus; Table IV (separate study)): 12.5 | M.I.C. (P. ruminicola; [2]): < 0.2 µg/mL | Minimal Inhibitory Concentration (bioactivity data) (P. ruminicola; Table IV (separate study)): < 0.2 | M.I.C. (B. fragilis; [2]): 1.6 µg/mL | Minimal Inhibitory Concentration (bioactivity data) (B. fragilis; Table IV (separate study)): 50.0
